# Assay results from patent US20170190705A1, “Compositions and Methods for Inhibiting BMP” (THE BRIGHAM AND WOMAN'S HOSPITAL, INC., priority 2014, published 2017).
# Tests used:
# MAP4K5 = MAP4K5 (Homo sapiens, UniProt Q9Y4K4); assay: Kinome profiling MAP4K5; format: biochemical; settings: Table 4, read-out: Inhibitory Activity MAP4K5
# Experimental: (§1) . The kinome-wide selectivity was determined following the methods previously reported by Mohedas et al., ACS Chem Biol 2013, 8, 1291-1302 and Sanvitale et al., PLoS One 2013, 8, e62721.
# ALK2 = ALK2 (Homo sapiens, UniProt Q04771); assay: Kinome profiling ALK2; format: biochemical; settings: Table 4, read-out: Inhibitory Activity ALK2
# Chain of ALK2 (Q04771 21-509): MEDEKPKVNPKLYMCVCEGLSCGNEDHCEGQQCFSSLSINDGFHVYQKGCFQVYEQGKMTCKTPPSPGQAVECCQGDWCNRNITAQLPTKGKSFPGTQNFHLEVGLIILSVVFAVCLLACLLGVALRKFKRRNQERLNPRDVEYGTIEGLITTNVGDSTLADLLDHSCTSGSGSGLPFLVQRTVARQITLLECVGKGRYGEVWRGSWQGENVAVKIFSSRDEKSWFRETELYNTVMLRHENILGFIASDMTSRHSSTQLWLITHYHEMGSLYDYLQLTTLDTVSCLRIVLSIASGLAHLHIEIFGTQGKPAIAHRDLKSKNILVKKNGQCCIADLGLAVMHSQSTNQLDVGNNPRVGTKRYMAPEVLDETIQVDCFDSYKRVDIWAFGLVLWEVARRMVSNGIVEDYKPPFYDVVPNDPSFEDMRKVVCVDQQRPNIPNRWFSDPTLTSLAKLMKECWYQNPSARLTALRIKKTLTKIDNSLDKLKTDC
# Experimental: as §1
# ALK6 = ALK6 (Homo sapiens, UniProt O00238); assay: Kinome profiling ALK6; format: biochemical; settings: Table 4, read-out: Inhibitory Activity ALK6
# Chain of ALK6 (O00238 14-502): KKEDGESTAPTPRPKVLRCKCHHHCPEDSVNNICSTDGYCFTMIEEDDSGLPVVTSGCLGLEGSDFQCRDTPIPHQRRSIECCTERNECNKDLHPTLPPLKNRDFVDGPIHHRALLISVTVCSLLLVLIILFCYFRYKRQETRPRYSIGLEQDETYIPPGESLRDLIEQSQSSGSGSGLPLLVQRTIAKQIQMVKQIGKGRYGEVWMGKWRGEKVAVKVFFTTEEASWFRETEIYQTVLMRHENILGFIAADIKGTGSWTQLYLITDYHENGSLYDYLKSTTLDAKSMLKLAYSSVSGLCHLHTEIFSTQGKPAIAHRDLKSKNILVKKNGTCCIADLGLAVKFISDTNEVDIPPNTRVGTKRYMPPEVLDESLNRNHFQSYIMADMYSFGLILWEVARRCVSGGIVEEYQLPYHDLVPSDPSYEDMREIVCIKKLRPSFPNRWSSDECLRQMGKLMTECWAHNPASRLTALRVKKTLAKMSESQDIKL
# Experimental: as §1
# TNIK = TNIK (Homo sapiens, UniProt Q9UKE5); assay: Kinome profiling TNIK; format: biochemical; settings: Table 4, read-out: Inhibitory Activity TNIK
# Chain of TNIK (Q9UKE5 whole entry): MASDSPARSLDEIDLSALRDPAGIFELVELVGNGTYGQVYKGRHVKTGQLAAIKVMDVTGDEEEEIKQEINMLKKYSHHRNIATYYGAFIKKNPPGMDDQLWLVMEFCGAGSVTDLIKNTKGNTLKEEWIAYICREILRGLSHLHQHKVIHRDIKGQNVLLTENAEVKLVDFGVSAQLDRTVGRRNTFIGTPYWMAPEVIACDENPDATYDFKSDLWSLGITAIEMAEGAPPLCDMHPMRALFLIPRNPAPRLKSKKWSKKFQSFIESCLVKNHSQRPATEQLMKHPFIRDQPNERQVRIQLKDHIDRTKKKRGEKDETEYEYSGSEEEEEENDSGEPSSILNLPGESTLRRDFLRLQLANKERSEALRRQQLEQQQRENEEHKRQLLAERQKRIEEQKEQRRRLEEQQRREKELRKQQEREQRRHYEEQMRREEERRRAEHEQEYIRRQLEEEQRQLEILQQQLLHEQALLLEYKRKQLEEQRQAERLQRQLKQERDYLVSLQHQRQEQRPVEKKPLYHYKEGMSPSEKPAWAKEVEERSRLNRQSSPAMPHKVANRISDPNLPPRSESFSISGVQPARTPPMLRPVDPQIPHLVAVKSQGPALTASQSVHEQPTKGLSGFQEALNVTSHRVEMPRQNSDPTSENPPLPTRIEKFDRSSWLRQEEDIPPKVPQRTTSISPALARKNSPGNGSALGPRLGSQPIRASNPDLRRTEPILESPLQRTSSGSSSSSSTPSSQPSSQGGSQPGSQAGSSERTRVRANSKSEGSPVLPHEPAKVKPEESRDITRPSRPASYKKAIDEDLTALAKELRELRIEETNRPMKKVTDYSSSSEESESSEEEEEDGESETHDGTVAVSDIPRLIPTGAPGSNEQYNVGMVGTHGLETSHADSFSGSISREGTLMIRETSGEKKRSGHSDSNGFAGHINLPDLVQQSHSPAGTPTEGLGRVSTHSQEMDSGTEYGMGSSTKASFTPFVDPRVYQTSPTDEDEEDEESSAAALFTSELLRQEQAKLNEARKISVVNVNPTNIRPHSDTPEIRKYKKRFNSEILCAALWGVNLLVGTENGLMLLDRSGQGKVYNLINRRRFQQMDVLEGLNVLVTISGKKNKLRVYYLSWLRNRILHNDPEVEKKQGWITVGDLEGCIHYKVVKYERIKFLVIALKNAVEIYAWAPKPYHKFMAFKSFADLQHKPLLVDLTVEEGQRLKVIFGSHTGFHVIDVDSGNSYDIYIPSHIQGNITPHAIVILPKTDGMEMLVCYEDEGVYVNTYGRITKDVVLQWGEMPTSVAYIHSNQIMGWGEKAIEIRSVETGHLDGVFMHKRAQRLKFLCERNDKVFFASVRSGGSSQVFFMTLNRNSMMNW
# Experimental: as §1
# RIPK2 = RIPK2 (Homo sapiens, UniProt O43353); assay: Kinome profiling RIPK2; format: biochemical; settings: Table 4, read-out: Inhibitory Activity RIPK2
# Chain of RIPK2 (O43353 whole entry): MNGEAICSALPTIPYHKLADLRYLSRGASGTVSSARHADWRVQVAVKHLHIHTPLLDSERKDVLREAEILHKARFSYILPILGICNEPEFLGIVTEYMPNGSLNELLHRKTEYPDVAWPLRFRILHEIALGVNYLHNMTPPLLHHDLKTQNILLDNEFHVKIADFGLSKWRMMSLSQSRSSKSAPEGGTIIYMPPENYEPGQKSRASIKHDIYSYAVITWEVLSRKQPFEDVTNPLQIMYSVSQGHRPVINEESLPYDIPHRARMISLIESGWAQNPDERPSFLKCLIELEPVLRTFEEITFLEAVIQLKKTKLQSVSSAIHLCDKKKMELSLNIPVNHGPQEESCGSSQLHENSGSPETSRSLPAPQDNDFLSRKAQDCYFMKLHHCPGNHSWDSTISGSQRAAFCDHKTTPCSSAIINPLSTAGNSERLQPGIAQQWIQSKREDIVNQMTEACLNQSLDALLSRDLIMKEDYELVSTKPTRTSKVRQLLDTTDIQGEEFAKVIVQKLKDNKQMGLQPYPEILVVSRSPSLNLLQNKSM
# Experimental: as §1
# caALK1 = target: T1, caALK1 (Homo sapiens, UniProt P37023, Q201D); assay: Luciferase reporter assay constitutively active ALK1; settings: read-out: Cell Based Assay caALK1 IC50
# T1 construct: expressed in transfected cells; host or cells: C2C12 BRE-Luc cells infected with adenovirus (MOI 100)
# T1 sequence (P37023 22-503 Q201D): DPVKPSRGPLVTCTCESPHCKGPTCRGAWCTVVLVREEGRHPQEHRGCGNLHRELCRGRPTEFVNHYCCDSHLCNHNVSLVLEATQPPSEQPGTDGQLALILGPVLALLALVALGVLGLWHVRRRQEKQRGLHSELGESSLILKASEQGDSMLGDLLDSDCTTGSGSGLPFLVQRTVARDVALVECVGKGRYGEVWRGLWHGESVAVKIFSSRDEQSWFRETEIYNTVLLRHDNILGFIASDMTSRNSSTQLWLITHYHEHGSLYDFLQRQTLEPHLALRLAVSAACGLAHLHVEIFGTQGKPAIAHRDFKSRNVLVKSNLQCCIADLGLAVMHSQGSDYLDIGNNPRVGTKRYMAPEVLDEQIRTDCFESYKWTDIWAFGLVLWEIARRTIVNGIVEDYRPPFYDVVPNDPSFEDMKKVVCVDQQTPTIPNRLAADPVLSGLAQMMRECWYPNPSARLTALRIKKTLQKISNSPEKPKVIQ
# Experimental: The cells were incubated for 1 h (37° C. and 10% CO2) and allowed to settle and attach. Compounds of interest or DMSO were diluted in DMEM and added at final compound concentrations of 1 nM to 10 μM. Cells were then incubated for 30 min. Adenovirus expressing constitutively active BMP and TGF-β type I receptors (Ad.caALK1-5), generously provided by Dr. Akiko Hata (University of to California at San Francisco), were added to achieve a multiplicity of infection (MOI) of 100. Plates were incubated overnight at 37° C. Cell viability was assayed with an MIT (3-(4,5-dimethylthiazol-2-yl)-2,5-diphenyl tetrazolium bromide) colorimetric assay (Promega) per the manufacturer's instructions. Media was discarded, and firefly luciferase activity was measured (Promega) according to manufacturer's protocol. Light output was measured using a Spectramax L luminometer (Molecular Devices) with an integration time of one second per well. Data was normalized to 100% of incremental BRE-Luc activity due to adenoviruses specifying caALK1, 2, or 3, or the incremental CAGA-Luc activity due to adenoviruses specifying caALK4 or 5.
# Chain of MAP4K5 (Q9Y4K4 whole entry): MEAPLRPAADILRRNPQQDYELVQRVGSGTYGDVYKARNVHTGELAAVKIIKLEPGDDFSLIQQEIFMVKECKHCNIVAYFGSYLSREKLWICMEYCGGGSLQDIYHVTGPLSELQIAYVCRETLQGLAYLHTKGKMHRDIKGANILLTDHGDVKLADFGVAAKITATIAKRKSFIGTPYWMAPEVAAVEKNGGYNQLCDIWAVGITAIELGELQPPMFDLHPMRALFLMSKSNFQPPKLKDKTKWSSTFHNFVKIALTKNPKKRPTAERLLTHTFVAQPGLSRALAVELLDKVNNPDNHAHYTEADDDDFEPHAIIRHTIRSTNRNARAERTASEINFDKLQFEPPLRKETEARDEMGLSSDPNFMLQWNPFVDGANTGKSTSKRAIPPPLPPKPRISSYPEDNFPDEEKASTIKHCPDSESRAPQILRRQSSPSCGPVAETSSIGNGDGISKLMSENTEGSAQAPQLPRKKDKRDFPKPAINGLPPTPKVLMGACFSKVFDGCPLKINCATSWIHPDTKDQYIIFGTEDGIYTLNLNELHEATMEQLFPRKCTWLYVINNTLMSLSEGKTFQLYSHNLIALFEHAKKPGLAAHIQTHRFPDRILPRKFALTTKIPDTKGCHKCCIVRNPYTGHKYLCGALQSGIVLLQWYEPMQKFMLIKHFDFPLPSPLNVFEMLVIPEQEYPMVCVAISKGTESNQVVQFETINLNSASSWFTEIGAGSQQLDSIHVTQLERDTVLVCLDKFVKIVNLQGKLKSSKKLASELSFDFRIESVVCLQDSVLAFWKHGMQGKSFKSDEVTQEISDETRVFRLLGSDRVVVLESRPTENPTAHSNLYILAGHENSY
Compound,inhibition at 0.1 µM (MAP4K5; 100 nM) [%],inhibition at 1 µM (MAP4K5; 1 μM) [%],inhibition at 0.1 µM (ALK2; 100 nM) [%],inhibition at 1 µM (ALK2; 1 μM) [%],inhibition at 0.1 µM (ALK6; 100 nM) [%],inhibition at 1 µM (ALK6; 1 μM) [%],inhibition at 0.1 µM (TNIK; 100 nM) [%],inhibition at 1 µM (TNIK; 1 μM) [%],inhibition at 0.1 µM (RIPK2; 100 nM) [%],inhibition at 1 µM (RIPK2; 1 μM) [%],IC50 (caALK1) [nM]
"COc1cc(-c2cc(-c3ccc(N4CCNCC4)cc3)cnc2C)cc(OC)c1OC [Compound 10, 1-(4-(6-methyl-5-(3,4,5-trimethoxyphenyl)pyridin-3-yl)phenyl)piperazine]",43,86,67,99,11,60,71,98,71,97,–
"COc1cc(-c2cc(-c3ccc(N4CCNCC4)cc3)cnc2N)cc(OC)c1OC [Compound 15, 5-(4-(piperazin-1-yl)phenyl)-3-(3,4,5-trimethoxyphenyl)pyridin-2-amine]",–,–,–,–,–,–,–,–,–,–,24
